{"source": "patent EP4741420A1", "about": "“PHARMACEUTICAL COMPOSITION FOR PREVENTING OR TREATING OBESITY COMPRISING GLP ANALOGUE AS ACTIVE INGREDIENT” (priority 2023, dated 2025)", "key": {"[1]": {"tested_on": "diet-induced obesity (DIO) mouse model", "test": "DIO mouse model QD: body composition by DEXA (Example 7-2)", "assay_type": "in vivo, mice", "details": "QD (once daily), 45 nmol/kg/dose", "description": "(§1) The anti-obesity effects of SEQ ID NO: 1 prepared in Example 1, and SEQ ID NOs: 6 and 7 prepared in Example 4 were analyzed. […] In addition, as an experimental model, a diet-induced obesity (DIO) mouse model fed a high-fat diet for 3 months was used.\nTo analyze the anti-obesity effect, body composition analysis was conducted using Dual Energy X-ray Absorptiometry (DEXA). The DEXA imaging system (VET DXA iNSiGHT) is for measuring the bone density and body fat of an experimental animal through dual X-ray transmission, and after the completion of experimental material administration, DEXA fat mass and muscle mass were measured for each individual. Accordingly, body weight was categorized into BMC, lean, and fat, and the fat reduction was analyzed to provide a more objective assessment of the anti-obesity effect according to Example 7-1."}, "[2]": {"tested_on": "diet-induced obesity (DIO) mouse model", "test": "DIO mouse model QD: liver Oil Red O staining (Example 8-4)", "assay_type": "in vivo", "details": "DIO mice, QD (once daily), 45 nmol/kg/dose", "description": "Finally, to confirm the anti-obesity effect in the liver, liver Oil Red O staining analysis was performed. ORO staining is a staining method used to detect triglycerides (fat) in adipose-related diseases, and used to differentiate fat embolism, liposarcoma, hepatic steatosis, and lipid accumulation disorders. In addition, it can also detect lipid complexes, such as phospholipids. For ORO analysis, liver tissue was processed in 30% sucrose in a refrigerator for 3 days to prepare frozen tissue sections, which were used to prepare OCT-embedded frozen blocks. Cryosections were prepared and stained with ORO."}, "[3]": {"tested_on": "diet-induced obesity (DIO) mouse model", "test": "DIO mouse model QD: liver weight and steatosis score, H&E (Example 8-2)", "assay_type": "in vivo, mice", "details": "QD (once daily), 45 nmol/kg/dose", "text": "To examine liver weight and steatosis, the liver weight elevated by obesity induction and the degree of steatosis after liver H&E staining were scored from grades 0 to 3 to compare the drug's hepatic efficacy. First, after the test was completed, the animal's liver was excised on the day of necropsy to confirm the liver efficacy of the drug. After measuring the weight of the excised liver, the intermediate lobes were frozen in liquid nitrogen for the subsequent measurement of triglycerides. The remaining portion of the liver was fixed in 10% neutral buffered formalin and subjected to histopathological examination.\nFor H&E analysis, the liver tissue fixed in the buffered formalin was put into an automatic tissue processor, embedded in paraffin, and then prepared into a paraffin block. Subsequently, the paraffin block was prepared into a tissue section, which was stained with hematoxylin & eosin (H&E). The stained tissue slide was observed using an optical microscope (BX61, Olympus, Japan) and photographed (DP80, Olympus, Japan).\nHistopathological quantification of liver tissue was performed by scoring the degree of steatosis on H&E-stained slides from grades 0 to 3. The contents corresponding to each scoring grade are as follows."}, "[4]": {"tested_on": "diet-induced obesity (DIO) mouse model", "test": "DIO mouse model QD: weight loss and cumulative food intake (Example 7-1)", "assay_type": "in vivo", "details": "DIO mice, QD (once daily), 4-week administration, 45 nmol/kg/dose", "description": "The obesity treatment effect of the long-acting GLP analog prepared in Example 1 was evaluated. Specifically, an obesity animal model was prepared to confirm the obesity treatment effect, and after administering a certain amount of material, the model was subjected to measurement of a body weight and the change in food intake, and biochemical tests. First, to establish a diet-induced obesity mouse model, C57BL/6 DIO mice were fed a high-fat diet for 12 weeks, resulting in a body weight that was 130% that of the control (DIO model). Afterward, the mice were grouped at a specific time point to determine the average weight of the DIO model (46.2±2.2), followed by drug administration to the mice for 4 weeks. Here, the body weight and food intake were measured daily.\nas §1\nTo analyze the anti-obesity effect, first, the comparative analysis of weight loss effect and cumulative food intake was conducted. The experimental method was the same as described in Example 3."}, "[5]": {"tested_on": "diet-induced obesity (DIO) mouse model", "test": "DIO mouse model QD: liver damage markers AST/ALT (Example 8-1)", "assay_type": "in vivo", "details": "serum, DIO mice, QD (once daily), 45 nmol/kg/dose", "description": "The anti-obesity effect in the liver was analyzed for the same materials used in Example 7. Specifically, liver damage marker (AST/ALT) analysis, liver weight/fatty liver examination, hepatic triglyceride measurement, and liver ORO staining analysis were performed.\nTo analyze the liver damage markers, AST/ALT, blood biochemical analysis was performed on the blood of a material-treated obese mouse model. Specifically, the collected blood was divided into two tubes, approximately 200 µL of the blood was put into each EDTA tube, and the remaining volume was injected into a vacutainer tube containing a coagulant. Blood collected in an EDTA tube was used to measure glycated hemoglobin on the same day, while the blood collected in the vacutainer tube was left at room temperature for 15 to 20 minutes to coagulate, and then centrifuged for 10 minutes to obtain serum. The serum was used for blood biochemical analysis."}, "[6]": {"test": "Mouse PK after single subcutaneous administration, LC-MS/MS of plasma", "assay_type": "in vivo, mice", "details": "male, C57BL/6N, mouse, in vivo, sc", "description": "Each of the experimental groups and the control was subcutaneously administered once to the dorsal area of a total of 12 mice using a 1 mL syringe equipped with a 26-gauge needle at a dose of 0.2 mg/5 mL/kg. After drug administration, approximately 0.04 to 0.05 mL of blood was collected per individual at the time scheduled for the orbital vein (4 mice were alternately sampled), and the blood collection times were 1, 2, 4, 8, 24 ,32 ,48, 56, 72, 96, and 120 hours. All plasma samples were analyzed using a self-developed LC-MS/MS assay. Pharmacokinetic analysis of blood drugs was performed using non-compartmental analysis, and analysis of pharmacokinetic parameters was performed using Phoenix WinNolin 64 (Version. 8.3.5 340)."}, "[7]": {"tested_on": "diet-induced obesity (DIO) mouse model", "test": "DIO mouse model QD: hepatic triglyceride measurement (Example 8-3)", "assay_type": "in vivo", "details": "liver tissue, DIO mice, QD (once daily), 45 nmol/kg/dose", "description": "To measure hepatic triglyceride levels, triglycerides in liver tissue excised on the necropsy day were analyzed using a measurement kit (Biomax, Cat no. BM-TGR-100)."}, "[8]": {"tested_on": "diet-induced obesity (DIO) mouse model", "test": "DIO mouse model QD: fat weight by tissue (Example 7-3)", "assay_type": "in vivo", "details": "fat weight of tissue, DIO mice, QD (once daily), 45 nmol/kg/dose", "description": "as §1\nTo analyze the anti-obesity effect, the amount of fat by tissue was measured postmortem to further confirm the efficacy of the peptide in obesity. Specifically, the epididymal, mesenteric, inguinal, and perirenal tissues of animals euthanized by decapitation were excised to measure the fat weights for each tissue and then photographed."}}, "note": "Peptide text beside a SMILES is read from it."}
{"smiles": "CCCCCCCCCCCCCCCC(=O)N[C@@H](CCC(=O)NCCCC[C@H](NC(=O)[C@H](CCCCN)NC(=O)[C@H](CC(=O)O)NC(=O)[C@@H](NC(=O)[C@@H](NC(=O)[C@H](CCCCN)NC(=O)[C@@H](NC(=O)[C@H](CCC(N)=O)NC(=O)[C@@H](NC(=O)[C@H](CC(C)C)NC(=O)[C@H](Cc1c[nH]c2ccccc12)NC(=O)[C@H](CC(N)=O)NC(=O)[C@@H](NC(=O)[C@H](Cc1ccccc1)NC(=O)[C@H](CC(=O)O)NC(=O)[C@H](CCCNC(=N)N)NC(=O)[C@H](C)NC(=O)[C@H](C)NC(=O)[C@H](CC(C)C)NC(=O)[C@H](C)NC(=O)[C@H](CC(=O)O)NC(=O)[C@H](CC(C)C)NC(=O)[C@H](Cc1ccc(O)cc1)NC(=O)[C@@H](NC(=O)[C@H](CO)NC(=O)[C@H](CC(C)C)NC(=O)[C@H](CC(=O)O)NC(=O)[C@H](CO)NC(=O)[C@@H](NC(=O)[C@H](Cc1ccccc1)NC(=O)[C@@H](NC(=O)CNC(=O)[C@H](CCC(=O)O)NC(=O)CNC(=O)[C@@H](N)Cc1c[nH]cn1)[C@@H](C)O)[C@@H](C)O)[C@@H](C)O)[C@@H](C)CC)[C@@H](C)CC)[C@@H](C)O)[C@@H](C)CC)[C@@H](C)O)C(=O)O)C(=O)O", "note": "[HU020K2FA] (HELM PEPTIDE1{H.G.E.G.T.F.T.S.D.L.S.T.Y.L.D.A.L.A.A.R.D.F.I.N.W.L.I.Q.T.K.I.T.D.K.K}|PEPTIDE2{[CCCCCCCCCCCCCCCC(=O)[*:2]].[gGlu]}$PEPTIDE1,PEPTIDE2,35:R3-2:R2$$$V2.0; N-terminus and C-terminus assumed)", "values": [{"measurement": "Fat", "setting": "[1]; DEXA, DIO mice", "value": "9.6 ± 1.0", "unit": "g"}, {"measurement": "Lean", "setting": "[1]; DEXA, DIO mice", "value": "26.5 ± 1.7", "unit": "g"}, {"measurement": "Weight", "setting": "[1]; Table 9, DIO mice", "value": "37.5 ± 2.6", "unit": "g"}, {"measurement": "Weight (%) (Normalized to DIO vehicle)", "setting": "[1]; Table 9, DIO mice", "value": "80.3±4.4", "unit": "%"}, {"measurement": "ORO positive area (%)", "setting": "[2]", "value": "1.41±0.66", "unit": "%"}, {"measurement": "Liver weight", "setting": "[3]; DIO mice", "value": "1.58±0.10"}, {"measurement": "Hepatic steatosis test (Score 0~3)", "setting": "[3]; H&E, mean of grades 0 to 3, DIO mice", "value": "0.97±0.47"}, {"measurement": "Comparison of weight change (%)", "setting": "[4]", "value": "-16.0±3.2", "unit": "%"}, {"measurement": "Weight", "setting": "[4]", "value": "37.5 ± 2.6", "unit": "g"}, {"measurement": "Weight (%) (Normalized to DIO vehicle)", "setting": "[4]", "value": "80.3±4.4", "unit": "%"}, {"measurement": "Food intake", "setting": "[4]; cumulative", "value": "16.0 ± 1.8", "unit": "g"}, {"measurement": "ALT (U/L)", "setting": "[5]", "value": "34.7±5.9", "unit": "U/L"}, {"measurement": "AST (U/L)", "setting": "[5]", "value": "68.5±9.2", "unit": "U/L"}, {"measurement": "Tmax", "setting": "[6]", "value": 8, "unit": "h"}, {"measurement": "half-life", "setting": "[6]", "value": 6.6, "unit": "h"}, {"measurement": "Liver TG levels (nmol/µ)", "setting": "[7]", "value": "0.81±0.11", "unit": "nmol/µ"}, {"measurement": "Epididymal", "setting": "[8]", "value": "1.71±0.16"}, {"measurement": "Inguinal", "setting": "[8]", "value": "2.37±0.21"}, {"measurement": "Mesentric", "setting": "[8]", "value": "0.74±0.21"}, {"measurement": "Perirenal", "setting": "[8]", "value": "0.33±0.08"}]}
